{
  "source": "patent US5410031A",
  "about": "“Nucleoside cotransporter protein cDNA” (The Regents of the University of California Office of …, priority 1992, dated 1995)",
  "key": {"[1]": {"test_system": "SNST1c (chimeric Na+/nucleoside cotransporter SNST1)", "test": "Uptake of radiolabelled substrates in Xenopus oocytes expressing SNST1c", "assay_type": "cell-based, rabbit", "settings": "for transport of radiolabelled substrate by SNST1c: Xenopus oocytes injected with SNST1c RNA", "procedure": "(§1) Oocyte injections. Xenopus oocytes were dissected and injected, and transport was measured as described below. Stage V and VI oocytes (Dumont, J. Morphol. 136:153-180 (1972)) from Xenopus laevis (Xenopus One, Ann Arbor, Mich.) were dissected and defolliculated as described by Hediger et al., Proc. Natl. Acad. Sci. USA 84:2634-2637 (1987) and Coady et al., Arch. Biochem. Biophys. 265:73-81 (1990), both of which are incorporated by reference herein. Briefly, oocytes were hand-dissected from ovarian tissue of adult female Xenopus laevis. Individual oocytes were obtained by gentle agitation in Barth's solution (Silbernagl, Physiol. Rev. 68:912-1007 (1988)) 1.0% collagenase (to remove follicular cells) and 0.1% trypsin inhibitor for 60 min followed by a 30 to 60 min incubation in 100 mM K2 HP04, pH 6.5, 0.1% BSA (modified from Dumont, J. Morphol. 136:153-179 (1972)). Oocytes were maintained in Barth's solution at 18° C. After 16 to 24 hr, the healthy oocytes were injected with 50 nl of water or mRNA (0.2 to 1 mg/ml) and incubated in Barth's solution with gentamicin at 18° C. for another 3 to 8 days.\n(§2) Na^+ /nucleoside transporter activity was assayed by measuring the Na^+ -dependent uptake by the chimeric construct, SNST1c. […] Because of the sequence similarity to SGLT1, it was hypothesized that the transport would be Na^+ -dependent. Therefore, the uptake of ^22 Na^+ in the presence of potential substrates was monitored.\n(§3) Measurements were made of [^3 H] uridine uptake in oocytes expressing SNST1c (FIG. 4A and 4B). Uptakes were measured over 5 min in a buffer containing either 100 mM NaCl, choline chloride or LiCl as described by Coady et al., Arch. Biochem. Biophys. 283:130-134 (1990), incorporated by reference herein. [All of the solutions contained 2 mM KCL, 1 mM MgCl2, 1 mM CaCl2, 10 mM HEPES/Tris, pH 7.5 and either 100 mM NaCl (Na^+ transport buffer) or 100 mM choline-Cl (choline transport buffer). The uptake solutions contained radiolabeled substrate while the wash solutions contained nonradioactive substrate. Oocytes were injected with water as a control, or SNST1c cRNA (50 ng). Oocytes were preincubated for 30 min in substrate-free choline transport buffer when uptakes in Na^+ and choline were to be compared. Transport of substrate was assayed by placing 4-6 oocytes in 0.5 ml of radioactive uptake solution, preceded by a 30 min preincubation in a Na^+ -free (100 mM choline-Cl) solution when Na^+ -dependent transport was to be measured. Transport was stopped by washing the oocytes five times with 4 ml of ice-cold choline solution containing excess unlabeled substrate. The oocytes were individually dissolved in 1.0 ml of 10% SDS and assayed for radioactivity. All data are expressed as mean ±SD. FIG. 4A indicates cation dependence of 1 μM [^3 H]uridine uptake in oocytes expressing SNST1c 4 days post-injection. In addition, inhibition of 0.6 μM [^3 H] uridine uptake in oocytes by 1 mM nucleosides was determined (FIG. 4B). Uptakes were measured in Na^+ containing buffer (Coady et al., supra) Oocytes were injected with water as a control, or SNST1c cRNA (50 ng) ."}, "[2]": {"test_system": "SNST1c (expressed Na+/nucleoside cotransporter)", "test": "Inhibition of [3H]uridine / radiolabeled nucleoside uptake in oocytes expressing SNST1c", "assay_type": "cell-based, rabbit", "settings": "for inhibition of [3H]uridine transport by SNST1c: 1 mM nucleoside, 0.6 μM [3H]uridine, Na+ containing buffer (FIG. 4B)", "procedure": "as §3\nUptake of radiolabeled nucleosides into Xenopus oocytes was measured in the presence or absence of Na^+ as described above in Example 1, and in the presence and absence of 1 mM phloridzin (Sigma, St. Louis, Mo.). […]"}, "[3]": {"test_system": "Na+/glucose cotransporter protein", "settings": "cited from earlier work"}, "[4]": {"test_system": "Na+/nucleoside cotransport in the kidney brush border", "settings": "Lee et al. 1990; cited from earlier work"}, "[5]": {"test_system": "SNST1c (chimeric Na+/nucleoside cotransporter SNST1)", "test": "22Na+ uptake in the presence of potential substrates in oocytes expressing SNST1c", "assay_type": "cell-based, rabbit", "settings": "SNST1c-injected oocytes", "procedure": "as §1, §2, §3"}, "[6]": {"test_system": "oocyte transporter (Na+/nucleoside cotransport in the oocyte membrane)", "test": "Inhibition of endogenous Na+/nucleoside cotransport in the oocyte membrane", "assay_type": "cell-based, Xenopus laevis", "settings": "endogenous transport of the oocyte membrane", "procedure": "as §3, with “Transport was stopped by washing the oocytes five times with 4 ml of ice-cold choline solution containing excess unlabeled substrate.” left out, “FIG. 4A indicates cation dependence of 1 μM [^3 H]uridine uptake in oocytes expressing SNST1c 4 days post-injection. In addition, inhibition of 0.6 μM [^3 H] uridine uptake in oocytes by 1 mM nucleosides was determined (FIG. 4B).” left out"}, "[7]": {"test_system": "Na+/glucose cotransporter SGLT1", "settings": "SGLT1-injected oocytes", "experimental": "Xenopus oocytes were dissected and injected, and transport was measured as described below. […] Briefly, oocytes were hand-dissected from ovarian tissue of adult female Xenopus laevis. […] Oocytes were maintained in Barth's solution at 18° C. After 16 to 24 hr, the healthy oocytes were injected with 50 nl of water or mRNA (0.2 to 1 mg/ml) and incubated in Barth's solution with gentamicin at 18° C. for another 3 to 8 days.\n[All of the solutions contained 2 mM KCL, 1 mM MgCl2, 1 mM CaCl2, 10 mM HEPES/Tris, pH 7.5 and either 100 mM NaCl (Na^+ transport buffer) or 100 mM choline-Cl (choline transport buffer). The uptake solutions contained radiolabeled substrate while the wash solutions contained nonradioactive substrate. Oocytes were injected with water as a control, or SNST1c cRNA (50 ng). […] Transport of substrate was assayed by placing 4-6 oocytes in 0.5 ml of radioactive uptake solution, preceded by a 30 min preincubation in a Na^+ -free (100 mM choline-Cl) solution when Na^+ -dependent transport was to be measured. […] The oocytes were individually dissolved in 1.0 ml of 10% SDS and assayed for radioactivity. All data are expressed as mean ±SD. […] Uptakes were measured in Na^+ containing buffer (Coady et al., supra) Oocytes were injected with water as a control, or SNST1c cRNA (50 ng) ."}, "[8]": {"test_system": "SNST1c (chimeric Na+/nucleoside cotransporter SNST1)", "test": "Uptake of radiolabelled substrates in Xenopus oocytes expressing SNST1c", "assay_type": "cell-based, rabbit", "settings": "oocytes printed as SGLT1c, n=6 oocytes"}},
  "data": [
    {"compound": "3-O-methylglucose", "values": [
      {"measurement": "transport of radiolabelled substrate by SNST1c", "setting": "[1]", "result": "none of these was transported"}
    ]},
    {"compound": "O=c1ccn([C@H]2C[C@H](O)[C@@H](CO)O2)c(=O)[nH]1", "note": "[2-deoxyuridine]", "values": [
      {"measurement": "inhibition of [3H]uridine transport by SNST1c", "setting": "[2]", "result": "inhibited"}
    ]},
    {"compound": "O=C(CCc1ccc(O)cc1)c1c(O)cc(O[C@@H]2O[C@H](CO)[C@@H](O)[C@H](O)[C@H]2O)cc1O", "note": "[4' glycoside]", "values": [
      {"measurement": "activity as inhibitor of glucose transport", "setting": "[3]; Diedrich 1990", "result": "inactive"}
    ]},
    {"compound": "O=C(CCc1ccc(O)cc1)c1c(O)cc(O)cc1O[C@@H]1O[C@H](CO)[C@@H](O)[C@H](O)[C@H]1O", "note": "[Phloridzin]", "values": [
      {"measurement": "IC50", "setting": "[3]; mammalian intestine and kidney, competitive inhibition, read-out: concentration for fifty percent inhibition of sodium dependent sugar transport", "result": 5, "unit": "µM"},
      {"measurement": "inhibition of Na+/nucleoside cotransport in the kidney brush border", "setting": "[4]", "result": "inhibits"},
      {"measurement": "inhibition of the expressed Na+/nucleoside cotransporter", "setting": "[2]; 1 mM phloridzin, n=2, Xenopus oocytes", "result": 87, "unit": "%"}
    ]},
    {"compound": "Nc1ncnc2c1ncn2[C@@H]1O[C@H](CO)[C@@H](O)[C@H]1O", "note": "[adenosine]", "values": [
      {"measurement": "inhibition of [3H]uridine transport by SNST1c", "setting": "[2]", "result": "inhibited"}
    ]},
    {"compound": "C[C@H](N)C(=O)O", "note": "[alanine]", "values": [
      {"measurement": "transport of radiolabelled substrate by SNST1c", "setting": "[1]", "result": "none of these was transported"}
    ]},
    {"compound": "C[N+](C)(C)CC(=O)O", "note": "[betaine]", "values": [
      {"measurement": "signal of 22Na+ uptake in the presence of potential substrate", "setting": "[5]", "result": "no signals"}
    ]},
    {"compound": "O=C(O)CCCC[C@@H]1SC[C@@H]2NC(=O)N[C@@H]21", "note": "[biotin]", "values": [
      {"measurement": "transport of radiolabelled substrate by SNST1c", "setting": "[1]", "result": "none of these was transported"}
    ]},
    {"compound": "C[C@H](CCC(=O)O)[C@H]1CC[C@H]2[C@@H]3[C@H](O)C[C@@H]4C[C@H](O)CC[C@]4(C)[C@H]3C[C@H](O)[C@]12C", "note": "[cholate]", "values": [
      {"measurement": "signal of 22Na+ uptake in the presence of potential substrate", "setting": "[5]", "result": "no signals"}
    ]},
    {"compound": "Nc1ccn([C@@H]2O[C@H](CO)[C@@H](O)[C@H]2O)c(=O)n1", "note": "[cytidine]", "values": [
      {"measurement": "inhibition of [3H]uridine transport by SNST1c", "setting": "[2]", "result": "inhibited"}
    ]},
    {"compound": "Nc1ccn([C@H]2CC[C@@H](CO)O2)c(=O)n1", "note": "[dideoxycytidine]", "values": [
      {"measurement": "inhibition of the oocyte Na+/nucleoside transporter", "setting": "[6]", "result": "did not inhibit"}
    ]},
    {"compound": "Nc1nc2c(ncn2[C@@H]2O[C@H](CO)[C@@H](O)[C@H]2O)c(=O)[nH]1", "note": "[guanosine]", "values": [
      {"measurement": "inhibition of [3H]uridine transport by SNST1c", "setting": "[2]", "result": "inhibited"}
    ]},
    {"compound": "CC(O)C(=O)O", "note": "(stereo not shown) [lactate]", "values": [
      {"measurement": "transport of radiolabelled substrate by SNST1c", "setting": "[1]", "result": "none of these was transported"}
    ]},
    {"compound": "NCCCC[C@H](N)C(=O)O", "note": "[lysine]", "values": [
      {"measurement": "transport of radiolabelled substrate by SNST1c", "setting": "[1]", "result": "none of these was transported"}
    ]},
    {"compound": "CNC(C)(C)C(=O)O", "note": "[methyl-aminoisobutyric acid]", "values": [
      {"measurement": "transport of radiolabelled substrate by SNST1c", "setting": "[1]", "result": "none of these was transported"}
    ]},
    {"compound": "O[C@H]1[C@H](O)[C@@H](O)[C@H](O)[C@@H](O)[C@H]1O", "note": "[myoinositol]", "values": [
      {"measurement": "signal of 22Na+ uptake in the presence of potential substrate", "setting": "[5]", "result": "no signals"}
    ]},
    {"compound": "N[C@@H](Cc1ccccc1)C(=O)O", "note": "[phenylalanine]", "values": [
      {"measurement": "transport of radiolabelled substrate by SNST1c", "setting": "[1]", "result": "none of these was transported"}
    ]},
    {"compound": "O=C(O)[C@@H]1CCCN1", "note": "[proline]", "values": [
      {"measurement": "transport of radiolabelled substrate by SNST1c", "setting": "[1]", "result": "none of these was transported"}
    ]},
    {"compound": "O=C(O)CCC(=O)O", "note": "[succinate]", "values": [
      {"measurement": "transport of radiolabelled substrate by SNST1c", "setting": "[1]", "result": "none of these was transported"}
    ]},
    {"compound": "NCCS(=O)(=O)O", "note": "[taurine]", "values": [
      {"measurement": "transport of radiolabelled substrate by SNST1c", "setting": "[1]", "result": "none of these was transported"}
    ]},
    {"compound": "Cc1ncc(C[n+]2csc(CCO)c2C)c(N)n1", "note": "[thiamine]", "values": [
      {"measurement": "signal of 22Na+ uptake in the presence of potential substrate", "setting": "[5]", "result": "no signals"}
    ]},
    {"compound": "O=c1ccn([C@@H]2O[C@H](CO)[C@@H](O)[C@H]2O)c(=O)[nH]1", "note": "[uridine]", "values": [
      {"measurement": "3H-uridine uptake", "setting": "[7]; n=5 oocytes", "result": "309±78 fmol ^3 H-uridine/oocyte/hr"},
      {"measurement": "3H-uridine uptake", "setting": "[1]; SNST1c-injected oocytes, n=5 oocytes", "result": "722±108 fmol ^3 H-uridine/oocyte/hr"},
      {"measurement": "transport of radiolabelled substrate by SNST1c", "setting": "[1]", "result": "transported"},
      {"measurement": "inhibition of [3H]uridine transport by SNST1c", "setting": "[2]", "result": "inhibited"}
    ]},
    {"compound": "CO[C@H]1O[C@H](CO)[C@@H](O)[C@H](O)[C@H]1O", "note": "[αMDG, α-methyl-D-glucopyranose]", "values": [
      {"measurement": "14C-αMDG uptake", "setting": "[7]; n=6 oocytes", "result": "70±19", "unit": "pmol ^14 C-αMDG/oocyte/hr"},
      {"measurement": "transport of radiolabelled substrate by SNST1c", "setting": "[1]", "result": "none of these was transported"},
      {"measurement": "signal of 22Na+ uptake in the presence of potential substrate", "setting": "[5]", "result": "no signals"},
      {"measurement": "14C-αMDG uptake", "setting": "[8]", "result": "0.5±0.1", "unit": "pmol ^14 C-αMDG/oocyte/hr"}
    ]}
  ]
}
